Tests used:
Experiment in all cases: Test B pre-/postemergence
Type in all cases: in vivo
Set-up in all cases: key: 0 is no effect; 10 is complete control
soybean (Glycine max) = test system: soybean (Glycine max)
How it was run: (§1)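 Seeds were planted and sprayed preemergence, while plants at 2 to 18 cm (1- to 4-leaf stage) were sprayed postemergence at the same time, with test chemical in a non-phytotoxic solvent mixture containing surfactant. After twelve to sixteen days in a greenhouse, injury was rated visually against untreated controls on a 0–10 scale.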

[1] = test system: crabgrass (Digitaria sanguinalis)
How it was run: as §1

wild oat (Avena fatua) = test system: wild oat (Avena fatua)
How it was run: as §1

[2] = test system: blackgrass (Alopecurus myosuroides)
How it was run: as §1

[3] = test system: momingglory (Ipomoea hederacea)
How it was run: as §1

[4] = test system: cocklebur (Xanthium strumarium)
How it was run: as §1

[5] = test system: purple nutsedge (Cyperus rotundus)
How it was run: as §1

[6] = test system: sugar beet (Beta vulgaris)
How it was run: as §1

[7] = test system: pigweed (Amaranthus retroflexus)
How it was run: as §1

[8] = test system: velvetleaf (Abutilon theophrasti)
How it was run: as §1

[9] = test system: giant foxtail (Setaria faberii)
How it was run: as §1

[10] = test system: wheat (Triticum aestivum)
How it was run: as §1

[11] = test system: broadleaf signalgrass (Brachiaria decumbens)
How it was run: as §1

corn (Zea mays) = test system: corn (Zea mays)
How it was run: as §1

Cc1cnc(-n2ccc(C(F)(F)F)n2)nc1Cn1ccc(C(F)(F)F)n1 [Compound 52]
Plant response rating, Soybean (soybean (Glycine max); Rate 62 g/ha, Postemergence): 9
Soybean plant response rating (soybean (Glycine max); Rate 62 g/ha, Preemergence): 4
Soybean plant response rating (soybean (Glycine max); Rate 125 g/ha, Postemergence): 9
Plant response rating, Soybean (soybean (Glycine max); Rate 125 g/ha, Preemergence): 7
Plant response rating, Soybean (soybean (Glycine max); Rate 250 g/ha, Postemergence): 9
Plant response rating, Soybean (soybean (Glycine max); Rate 250 g/ha, Preemergence): 8
Plant response rating, Soybean (soybean (Glycine max); Rate 500 g/ha, Postemergence): 9
Plant response rating, Soybean (soybean (Glycine max); Rate 500 g/ha, Preemergence): 9
Plant response rating, Crabgrass ([1]; Rate 62 g/ha, Postemergence): 6
Crabgrass plant response rating ([1]; Rate 62 g/ha, Preemergence): 9
Crabgrass plant response rating ([1]; Rate 125 g/ha, Postemergence): 8
Plant response rating, Crabgrass ([1]; Rate 125 g/ha, Preemergence): 10
Plant response rating, Crabgrass ([1]; Rate 250 g/ha, Postemergence): 9
Plant response rating, Crabgrass ([1]; Rate 250 g/ha, Preemergence): 10
Plant response rating, Crabgrass ([1]; Rate 500 g/ha, Postemergence): 9
Plant response rating, Crabgrass ([1]; Rate 500 g/ha, Preemergence): 10
Wild oats plant response rating (wild oat (Avena fatua); Rate 62 g/ha, Postemergence): 6
Wild oats plant response rating (wild oat (Avena fatua); Rate 62 g/ha, Preemergence): 3
Wild oats plant response rating (wild oat (Avena fatua); Rate 125 g/ha, Postemergence): 8
Plant response rating, Wild oats (wild oat (Avena fatua); Rate 125 g/ha, Preemergence): 5
Plant response rating, Wild oats (wild oat (Avena fatua); Rate 250 g/ha, Postemergence): 8
Plant response rating, Wild oats (wild oat (Avena fatua); Rate 250 g/ha, Preemergence): 9
Plant response rating, Wild oats (wild oat (Avena fatua); Rate 500 g/ha, Postemergence): 9
Plant response rating, Wild oats (wild oat (Avena fatua); Rate 500 g/ha, Preemergence): 10
Plant response rating, Blackgrass ([2]; Rate 62 g/ha, Postemergence): 5
Blackgrass plant response rating ([2]; Rate 62 g/ha, Preemergence): 5
Blackgrass plant response rating ([2]; Rate 125 g/ha, Postemergence): 9
Plant response rating, Blackgrass ([2]; Rate 125 g/ha, Preemergence): 8
Plant response rating, Blackgrass ([2]; Rate 250 g/ha, Postemergence): 9
Plant response rating, Blackgrass ([2]; Rate 250 g/ha, Preemergence): 10
Plant response rating, Blackgrass ([2]; Rate 500 g/ha, Postemergence): 9
Plant response rating, Blackgrass ([2]; Rate 500 g/ha, Preemergence): 10
Plant response rating, Morningglory ([3]; Rate 62 g/ha, Postemergence): 10
Morningglory plant response rating ([3]; Rate 62 g/ha, Preemergence): 9
Morningglory plant response rating ([3]; Rate 125 g/ha, Postemergence): 10
Plant response rating, Morningglory ([3]; Rate 125 g/ha, Preemergence): 10
Plant response rating, Morningglory ([3]; Rate 250 g/ha, Postemergence): 10
Plant response rating, Morningglory ([3]; Rate 250 g/ha, Preemergence): 10
Plant response rating, Morningglory ([3]; Rate 500 g/ha, Postemergence): 10
Plant response rating, Morningglory ([3]; Rate 500 g/ha, Preemergence): 10
Plant response rating, Cocklebur ([4]; Rate 62 g/ha, Postemergence): 8
Cocklebur plant response rating ([4]; Rate 62 g/ha, Preemergence): 1
Cocklebur plant response rating ([4]; Rate 125 g/ha, Postemergence): 8
Plant response rating, Cocklebur ([4]; Rate 250 g/ha, Postemergence): 9
Plant response rating, Cocklebur ([4]; Rate 250 g/ha, Preemergence): 7
Plant response rating, Cocklebur ([4]; Rate 500 g/ha, Postemergence): 9
Plant response rating, Cocklebur ([4]; Rate 500 g/ha, Preemergence): 10
Plant response rating, Nutsedge ([5]; Rate 62 g/ha, Postemergence): 1
Nutsedge plant response rating ([5]; Rate 62 g/ha, Preemergence): 0
Nutsedge plant response rating ([5]; Rate 125 g/ha, Postemergence): 3
Plant response rating, Nutsedge ([5]; Rate 500 g/ha, Postemergence): 7
Plant response rating, Nutsedge ([5]; Rate 500 g/ha, Preemergence): 1
Plant response rating, Sugarbeets ([6]; Rate 62 g/ha, Postemergence): 9
Sugarbeets plant response rating ([6]; Rate 62 g/ha, Preemergence): 10
Sugarbeets plant response rating ([6]; Rate 125 g/ha, Postemergence): 10
Plant response rating, Sugarbeets ([6]; Rate 125 g/ha, Preemergence): 10
Plant response rating, Sugarbeets ([6]; Rate 250 g/ha, Postemergence): 10
Plant response rating, Sugarbeets ([6]; Rate 250 g/ha, Preemergence): 10
Plant response rating, Sugarbeets ([6]; Rate 500 g/ha, Postemergence): 10
Plant response rating, Sugarbeets ([6]; Rate 500 g/ha, Preemergence): 10
Plant response rating, Redroot pigweed ([7]; Rate 62 g/ha, Postemergence): 9
Redroot pigweed plant response rating ([7]; Rate 62 g/ha, Preemergence): 10
Redroot pigweed plant response rating ([7]; Rate 125 g/ha, Postemergence): 10
Plant response rating, Redroot pigweed ([7]; Rate 125 g/ha, Preemergence): 10
Plant response rating, Redroot pigweed ([7]; Rate 250 g/ha, Postemergence): 10
Plant response rating, Redroot pigweed ([7]; Rate 250 g/ha, Preemergence): 10
Plant response rating, Redroot pigweed ([7]; Rate 500 g/ha, Postemergence): 10
Plant response rating, Redroot pigweed ([7]; Rate 500 g/ha, Preemergence): 10
Plant response rating, Velvetleaf ([8]; Rate 62 g/ha, Postemergence): 8
Velvetleaf plant response rating ([8]; Rate 62 g/ha, Preemergence): 10
Velvetleaf plant response rating ([8]; Rate 125 g/ha, Postemergence): 8
Plant response rating, Velvetleaf ([8]; Rate 125 g/ha, Preemergence): 10
Plant response rating, Velvetleaf ([8]; Rate 250 g/ha, Postemergence): 8
Plant response rating, Velvetleaf ([8]; Rate 250 g/ha, Preemergence): 10
Plant response rating, Velvetleaf ([8]; Rate 500 g/ha, Postemergence): 9
Plant response rating, Velvetleaf ([8]; Rate 500 g/ha, Preemergence): 10
Plant response rating, Giant foxtail ([9]; Rate 62 g/ha, Postemergence): 7
Giant foxtail plant response rating ([9]; Rate 62 g/ha, Preemergence): 9
Giant foxtail plant response rating ([9]; Rate 125 g/ha, Postemergence): 8
Plant response rating, Giant foxtail ([9]; Rate 125 g/ha, Preemergence): 9
Plant response rating, Giant foxtail ([9]; Rate 250 g/ha, Postemergence): 9
Plant response rating, Giant foxtail ([9]; Rate 250 g/ha, Preemergence): 10
Plant response rating, Giant foxtail ([9]; Rate 500 g/ha, Postemergence): 9
Plant response rating, Giant foxtail ([9]; Rate 500 g/ha, Preemergence): 10
Wheat plant response rating ([10]; Rate 62 g/ha, Postemergence): 4
Wheat plant response rating ([10]; Rate 62 g/ha, Preemergence): 2
Wheat plant response rating ([10]; Rate 125 g/ha, Postemergence): 7
Plant response rating, Wheat ([10]; Rate 125 g/ha, Preemergence): 2
Plant response rating, Wheat ([10]; Rate 250 g/ha, Postemergence): 7
Plant response rating, Wheat ([10]; Rate 250 g/ha, Preemergence): 3
Plant response rating, Wheat ([10]; Rate 500 g/ha, Postemergence): 8
Plant response rating, Wheat ([10]; Rate 500 g/ha, Preemergence): 6
Plant response rating, B. signalgrass ([11]; Rate 62 g/ha, Postemergence): 4
B. signalgrass plant response rating ([11]; Rate 62 g/ha, Preemergence): 8
B. signalgrass plant response rating ([11]; Rate 125 g/ha, Postemergence): 9
Plant response rating, B. signalgrass ([11]; Rate 125 g/ha, Preemergence): 9
Plant response rating, B. signalgrass ([11]; Rate 250 g/ha, Postemergence): 9
Plant response rating, B. signalgrass ([11]; Rate 250 g/ha, Preemergence): 10
Plant response rating, B. signalgrass ([11]; Rate 500 g/ha, Postemergence): 9
Plant response rating, B. signalgrass ([11]; Rate 500 g/ha, Preemergence): 10
Plant response rating, Corn (corn (Zea mays); Rate 62 g/ha, Postemergence): 4
Corn plant response rating (corn (Zea mays); Rate 62 g/ha, Preemergence): 3
Corn plant response rating (corn (Zea mays); Rate 125 g/ha, Postemergence): 5
Plant response rating, Corn (corn (Zea mays); Rate 125 g/ha, Preemergence): 3
Plant response rating, Corn (corn (Zea mays); Rate 250 g/ha, Postemergence): 6
Plant response rating, Corn (corn (Zea mays); Rate 250 g/ha, Preemergence): 7
Plant response rating, Corn (corn (Zea mays); Rate 500 g/ha, Postemergence): 7
Plant response rating, Corn (corn (Zea mays); Rate 500 g/ha, Preemergence): 8
